Here are results for nine compounds from patent publication US12435050B2, “Benazolin-choline and its use in the agrochemical field” (BAYER AKTIENGESELLSCHAFT, priority 2019, dated 2025).

Series [1] relates to Amaranthus retroflexus (AMARE). Nature of the series: Greenhouse weed control efficacy on AMARE. The format is in vivo. Particulars: for % Control compared to untreated AMARE plants 21 DAA: 100 g a.e./ha, AMARE at BBCH 16-19 at application, visual rating 21 DAA; for % Control compared to untreated plants 21 DAA AMARE: BBCH 16-19, 21 DAA. An excerpt: (§1) The different forms of benazolin were applied to weed plants in the greenhouse or in the field at the growth stage indicated for the different weed species hereinafter. The trials in the greenhouse were sprayed with an application volume of 300 L/ha with an automated track sprayer. The plots in the field were sprayed with an application volume of 140 L/ha with a hand held spray boom. Twenty-one days after application (21 DAA) or twenty-eight days after application (28 DAA) the different weed species were visually rated on a percentage scale in relation to the untreated control (100%=all plants dead; 50%=green plant biomass reduced by 50%, and 0%=no discernible difference=like control plot). The growth stages of the different weed species are indicated according to the BBCH monograph “Growth stages of mono- and dicotyledonous plants”, 2nd edition, 2001, ed. Uwe Meier, Federal Biological Research Centre for Agriculture and Forestry (Biologische Bundesanstalt für Land and Forstwirtschaft).

The subject of series [2] is Chenopodium album (CHEAL). In words: Greenhouse weed control efficacy on CHEAL. The format is in vivo. Particulars: BBCH 15-24, 21 DAA.
Description: as §1

Series [3] deals with Euphorbia heterophylla (EPHHL). In words: Field weed control efficacy on EPHHL. The format is in vivo. Particulars: 200 g a.e./ha, EPHHL at BBCH 16-17 at application.
Description: as §1

Series [4] deals with Portulaca oleracea (POROL). In words: Field weed control efficacy on POROL. The class given is in vivo. Particulars: 200 g a.e./ha, POROL at BBCH 21-22 at application.
Description: as §1

Series [5] concerns Alternanthera tenella (ALRTE). Nature of the series: Field weed control efficacy on ALRTE. The format is in vivo. Particulars: 200 g a.e./ha, ALRTE at BBCH 14-16 at application.
Description: as §1

For series [6] the following is noted: cited from earlier work.
Series [7] in a line: Formulation compatibility: crystal formation after low temperature storage, mixing with glyphosate (Roundup Weathermax). The format is physicochemical. Particulars: benazolin salt SL10 mixed with Roundup Weathermax, ratio 4:1 (a.e., w/w), 5° C. for 2 days. Here is the method:
(§2) Here simple mixing experiments were performed with soluble liquid SL 10 formulations of benazolin salts containing […] a.e. of benazolin (see General procedure 51 above) containing no surfactant and commercially available dicamba and glyphosate formulations.
(§3) Formulation compatibility (solubility, miscibility and storability) tests of different benazolin salt SL 10 formulations in mixture with commercial formulations of herbicides such as dicamba or glyphosate were performed.
In a second experiment, Roundup® Weathermax was tank mixed with the respective benazolin salt SL 10 formulation in a 4:1 ratio by weight (w/w) based on the respective a.e. contents (in Table B5b referred to as “Ratio”) and the vial placed at 5° C. for 2 days.

Series [8] is described as follows: Formulation compatibility: crystal formation after low temperature storage, mixing with dicamba (Clarity). The class given is physicochemical. Particulars: benazolin salt SL10 mixed with Clarity, ratio 2:1 (a.e., w/w), 5° C. for 2 days. Here is the method: as §2, §3
In a first experiment, Clarity® (a commercial formulation of dicamba) was tank mixed with the respective benazolin salt SL 10 formulation in a 2:1 ratio by weight (w/w) based on the respective a.e. contents (in Table B5a referred to as “Ratio”) and the vial placed at 5° C. for 2 days.

Setting [9] is: benazolin salt 100 g a.e./ha in combination with 100 g a.e./ha dicamba (Clarity).
Where [10] appears, read: benazolin salt 100 g a.e./ha in combination with 200 g a.e./ha dicamba (Clarity).
Setting [11] is: benazolin salt 100 g a.e./ha in combination with 300 g a.e./ha dicamba (Clarity).
Setting [12] is: free acid, temperature not printed with the values (b59 refers to 25° C.).

“Also recorded” adds a separate entry of the source. Like-named read-outs stand apart in the source and are kept apart here.

With `O=C(O)Cn1c(=O)sc2cccc(Cl)c21` [Benazolin-BAPMA], in series [1], the “% Control compared to untreated AMARE plants 21 DAA” value is 65%. The “% Control compared to untreated plants 21 DAA AMARE” value worked out at 35% in series [1] (setting [9]), 50% in series [1] (setting [10]) and 65% in series [1] (setting [11]). The “% Control compared to untreated plants 21 DAA CHEAL” value is listed as 50% in series [2] (setting [9]), 65% in series [2] (setting [10]) and 67% in series [2] (setting [11]).

`CCOC(=O)Cn1c(=O)sc2cccc(Cl)c21` [Benazolin-ethyl, Ethyl (4-chloro-2-oxo-1,3-benzothiazol-3(2H)-yl)acetate]: the “% Control compared to untreated EPHHL plants 28 DAA” value in series [3] stood at 8%. In addition, the “% Control compared to untreated AMARE plants 21 DAA” value in series [1] is 35%. The “% Control compared to untreated POROL plants 28 DAA” value in series [4] came out at 88%. The “% Control compared to untreated ALRTE plants 21 DAA” value in series [5] came out at 40%.

For the compound `COc1c(Cl)ccc(Cl)c1C(=O)O` [Dicamba, 3,6-dichloro-2-methoxybenzoic acid], in series [6] (setting [12]), the vapor pressure was 4.5 mPa.

Regarding `O=C(O)Cn1c(=O)sc2cccc(Cl)c21` [Benazolin-DGA], the “% Control compared to untreated EPHHL plants 28 DAA” value in series [3] worked out at 8%. Also, in series [1], the “% Control compared to untreated AMARE plants 21 DAA” value stood at 40%. In addition, the “% Control compared to untreated plants 21 DAA AMARE” value amounted to 35% in series [1] (setting [9]), 40% in series [1] (setting [10]) and 55% in series [1] (setting [11]). In series [4], the “% Control compared to untreated POROL plants 28 DAA” value was determined as 50%. Moreover, the “% Control compared to untreated ALRTE plants 21 DAA” value in series [5] is given as 44%. Besides, the entries for the “% Control compared to untreated plants 21 DAA CHEAL” value in series [2] (setting [9]), in series [2] (setting [10]) and in series [2] (setting [11]) were 25%, 65% and 50%, respectively. In addition, in series [7], the “Microscopic evaluation (crystal formation)” value is listed as “Crystal formation”. Further, in series [7], the “Microscopic evaluation (shape of crystals)” value is given as “needles”. Besides, the “Microscopic evaluation (size of crystals in μm)” value in series [7] is given as “(60-100 μm),”.

With `O=C(O)Cn1c(=O)sc2cccc(Cl)c21` [Benazolin-DEA], in series [8], the “Microscopic evaluation (crystal formation)” value is “Crystal formation”, the “Microscopic evaluation (shape of crystals)” value is “platelets + needles” and the “Microscopic evaluation (size of crystals in μm)” value is “(20-40 μm),”.

In the case of `O=C(O)Cn1c(=O)sc2cccc(Cl)c21` [Benazolin, 4-Chloro-2,3-dihydro-2-oxo-1,3-benzothiazol-3-ylacetic acid], the “% Control compared to untreated EPHHL plants 28 DAA” value in series [3] is 5%. In addition, the “% Control compared to untreated AMARE plants 21 DAA” value in series [1] turned out to be 25%. Moreover, in series [4], the “% Control compared to untreated POROL plants 28 DAA” value is reported as 88%. The “% Control compared to untreated ALRTE plants 21 DAA” value in series [5] was 40%. In addition, the vapor pressure in series [6] (at 20° C.) was 0.0001 mPa.

For the compound `O=C([O-])Cn1c(=O)sc2cccc(Cl)c21.[K+]` [Benazolin-K], in series [7], the “Microscopic evaluation (crystal formation)” value is “Crystal formation”, the “Microscopic evaluation (shape of crystals)” value is listed as “platelets + needles” and the “Microscopic evaluation (size of crystals in μm)” value is on record as “(20-50 μm),”.

For the compound `O=C(O)Cn1c(=O)sc2cccc(Cl)c21` [Benazolin-choline], in series [3], the “% Control compared to untreated EPHHL plants 28 DAA” value is on record as 13%. Moreover, the “Microscopic evaluation (crystal formation)” value in series [8] and in series [7] was “no crystal formation was observed; also recorded: No crystals” throughout. In series [1], the “% Control compared to untreated AMARE plants 21 DAA” value turned out to be 70%. In addition, the “% Control compared to untreated plants 21 DAA AMARE” value in series [1] (setting [9]) amounted to 50%; in series [1] (setting [10]) it was 80%; in series [1] (setting [11]), 75%. The “% Control compared to untreated POROL plants 28 DAA” value in series [4] is 100%. Besides, the “% Control compared to untreated ALRTE plants 21 DAA” value in series [5] is 48%. Besides, the “% Control compared to untreated plants 21 DAA CHEAL” value worked out at 70% in series [2] (setting [9]), 80% in series [2] (setting [10]) and 85% in series [2] (setting [11]).

Take `O=C(O)COc1ccc(Cl)cc1Cl` [2,4-D, 2,4-dichlorophenoxy)acetic acid]: the vapor pressure result in series [6] (setting [12]) is “about 0.019 mPa”.
